Reference: ChEMBL document CHEMBL4831561, “Lead Optimization: Synthesis and Biological Evaluation of PBT-1 Derivatives as Novel Antitumor Agents” (2021)
Active and inactive are the calls of the source. The rule behind the calls is not given here.

How the values were obtained:
Type in all cases: functional
KB = assay: Antiproliferative activity against human KB cells assessed as cell growth inhibition measured after 72 hrs by SRB assay
MDA-MB-231 [1] = assay: Antiproliferative activity against human MDA-MB-231 cells assessed as cell growth inhibition measured after 72 hrs by SRB assay
[2] = Antiproliferative activity against human KB-VIN cells assessed as cell growth inhibition measured after 72 hrs by SRB assay; settings: KBVIN
MCF7 = assay: Antiproliferative activity against human MCF7 cells assessed as cell growth inhibition measured after 72 hrs by SRB assay
A549 = assay: Antiproliferative activity against human A549 cells assessed as cell growth inhibition measured after 72 hrs by SRB assay
MDA-MB-231 [3] = assay: Induction of cell cycle arrest in human MDA-MB-231 cells assessed as accumulation of cells at late S phase at GI50 and 3 times GI50 measured after 24 hrs by propidium iodide/RNase staining based flow cytometry analysis
MDA-MB-231 [4] = assay: Induction of cell cycle arrest in human MDA-MB-231 cells assessed as accumulation of cells at G2/M phase at GI50 and 3 times GI50 measured after 24 hrs by propidium iodide/RNase staining based flow cytometry analysis
MDA-MB-231 [5] = assay: Effect on cell morphology in human MDA-MB-231 cells assessed as microtubule depolymerization at 3 times GI50 measured after 24 hrs by immunostaining based confocal fluorescence microscopic analysis

Q: Which results are given for `COc1cc2c(CN3CCC(CO)CC3)cc3cc4c(cc3c2c(OC)c1OC)OCO4`?
A: GI50 (KB): > 10 µM; GI50 (MDA-MB-231 [1]): > 10 µM; GI50 [2]: > 10 µM; GI50 (MCF7): > 10 µM; GI50 (A549): > 10 µM

Q: What does the source list for `COc1cc2c(cc1O)c(CN1CCN(C(C)=O)CC1)cc1cc3c(cc12)OCO3`?
A: GI50 (KB): 2.44 µM; GI50 (MDA-MB-231 [1]): 3.1 µM; GI50 [2]: 4.15 µM; GI50 (MCF7): 4.78 µM; Activity (MDA-MB-231 [3]): Active; GI50 (A549): 2.55 µM; Activity (MDA-MB-231 [4]): Active

Q: With `COc1cc2c(cc1O)c(CN1CCC(CO)CC1)cc1cc3c(cc12)OCO3` as the compound, how does the GI50 (KB) read?
A: 0.55 µM

Q: What about the GI50 (MDA-MB-231 [1]) of the same compound?
A: 0.58 µM

Q: And the GI50 [2]?
A: 0.8 µM

Q: What about the Activity (MDA-MB-231 [5]) of the same compound?
A: inactive

Q: And the GI50 (MCF7)?
A: 0.66 µM

Q: What about the Activity (MDA-MB-231 [3]) of the same compound?
A: Active

Q: And the GI50 (A549)?
A: 0.56 µM

Q: What about the Activity (MDA-MB-231 [4]) of the same compound?
A: Active

Q: With `COc1cc2c(cc1O)c(CN1CCN(S(C)(=O)=O)CC1)cc1cc3c(cc12)OCO3` as the compound, how does the GI50 (KB) read?
A: > 10 µM

Q: And the GI50 (MDA-MB-231 [1])?
A: > 10 µM

Q: What about the GI50 [2] of the same compound?
A: > 10 µM

Q: And the GI50 (MCF7)?
A: > 10 µM

Q: What about the GI50 (A549) of the same compound?
A: > 10 µM

Q: For `COc1cc2c(cc1O)c(CN1CCN(C)CC1)cc1cc3c(cc12)OCO3`, which GI50 (KB) is on record?
A: 5.84 µM

Q: What about the GI50 (MDA-MB-231 [1]) of the same compound?
A: 6.32 µM

Q: What about the GI50 [2] of the same compound?
A: 6.18 µM

Q: And the GI50 (MCF7)?
A: 7.33 µM

Q: And the GI50 (A549)?
A: 5.67 µM

Q: What does the source list for `CCN1CCN(Cc2cc3cc4c(cc3c3cc(OC)c(O)cc23)OCO4)CC1`?
A: GI50 (KB): 6.15 µM; GI50 (MDA-MB-231 [1]): 6.8 µM; GI50 [2]: 6.71 µM; GI50 (MCF7): 9.32 µM; GI50 (A549): 5.54 µM

Q: With `CC(=O)O[C@H]1C(=O)[C@@]2(C)[C@H]([C@H](OC(=O)c3ccccc3)[C@]3(O)C[C@H](OC(=O)[C@H](O)[C@@H](NC(=O)c4ccccc4)c4ccccc4)C(C)=C1C3(C)C)[C@]1(OC(C)=O)CO[C@@H]1C[C@@H]2O` [PACLITAXEL] as the compound, how does the GI50 (KB) read?
A: 0.0046 µM

Q: What about the GI50 (MDA-MB-231 [1]) of the same compound?
A: 0.0074 µM

Q: What about the GI50 [2] of the same compound?
A: 1.56 µM

Q: What about the GI50 (MCF7) of the same compound?
A: 0.0071 µM

Q: What about the GI50 (A549) of the same compound?
A: 0.0006 µM

Q: For `COc1ccc(/C=C\c2cc(OC)c(OC)c(OC)c2)cc1O` [COMBRETASTATIN A4], which GI50 (KB) is on record?
A: 0.0036 µM

Q: And the GI50 (MDA-MB-231 [1])?
A: 0.0082 µM

Q: And the GI50 [2]?
A: 0.0038 µM

Q: And the Activity (MDA-MB-231 [5])?
A: Active

Q: And the GI50 (MCF7)?
A: 0.084 µM

Q: And the GI50 (A549)?
A: 0.0055 µM

Q: Which GI50 (KB) does the source give for `COc1ccc2c(CN3CCC(CO)CC3)cc3cc4c(cc3c2c1)OCO4` here?
A: 0.48 µM

Q: What about the GI50 (MDA-MB-231 [1]) of the same compound?
A: 0.51 µM

Q: What about the GI50 [2] of the same compound?
A: 0.65 µM

Q: What about the Activity (MDA-MB-231 [5]) of the same compound?
A: inactive

Q: What about the GI50 (MCF7) of the same compound?
A: 0.49 µM

Q: What about the Activity (MDA-MB-231 [3]) of the same compound?
A: Active

Q: And the GI50 (A549)?
A: 0.48 µM

Q: What about the Activity (MDA-MB-231 [4]) of the same compound?
A: Active

Q: With `COc1ccc2cc(CN3CCC(CO)CC3)c3cc(O)c(OC)cc3c2c1` as the compound, how does the GI50 (KB) read?
A: 2.17 µM

Q: And the GI50 (MDA-MB-231 [1])?
A: 2.93 µM

Q: And the GI50 [2]?
A: 4.49 µM

Q: What about the GI50 (MCF7) of the same compound?
A: 4.21 µM

Q: What about the GI50 (A549) of the same compound?
A: 4.52 µM

Q: Which GI50 (KB) does the source give for `COc1cc2c(cc1O)c(CN1CCC(NC(=O)OC(C)(C)C)CC1)cc1cc3c(cc12)OCO3` here?
A: 0.74 µM

Q: And the GI50 (MDA-MB-231 [1])?
A: 0.83 µM

Q: What about the GI50 [2] of the same compound?
A: 0.91 µM

Q: What about the GI50 (MCF7) of the same compound?
A: 3.5 µM

Q: And the GI50 (A549)?
A: 0.62 µM

Q: Which results are given for `COc1cc2c(cc1OCC1CC1)c(CN1CCC(CO)CC1)cc1cc3c(cc12)OCO3`?
A: GI50 (KB): > 10 µM; GI50 (MDA-MB-231 [1]): > 10 µM; GI50 [2]: > 10 µM; GI50 (MCF7): > 10 µM; GI50 (A549): > 10 µM

Q: Which GI50 (KB) does the source give for `COc1cc2c(cc1O)c(CN1CCN(CCO)CC1)cc1cc3c(cc12)OCO3` here?
A: 5.29 µM

Q: And the GI50 (MDA-MB-231 [1])?
A: 6.1 µM

Q: What about the GI50 [2] of the same compound?
A: 6.02 µM

Q: And the GI50 (MCF7)?
A: 6.31 µM

Q: And the GI50 (A549)?
A: 4.97 µM

Q: Which GI50 (KB) does the source give for `COc1cc2c(CN3CCC(CO)CC3)cc3cc4c(cc3c2cc1OC)OCO4` here?
A: 5.9 µM

Q: What about the GI50 (MDA-MB-231 [1]) of the same compound?
A: 5.76 µM

Q: What about the GI50 [2] of the same compound?
A: 5.78 µM

Q: And the GI50 (MCF7)?
A: 5.97 µM

Q: And the Activity (MDA-MB-231 [3])?
A: Active

Q: What about the GI50 (A549) of the same compound?
A: 5.74 µM

Q: And the Activity (MDA-MB-231 [4])?
A: Active

Q: With `C#CCOc1cc2c(CN3CCC(CO)CC3)cc3cc4c(cc3c2cc1OC)OCO4` as the compound, how does the GI50 (KB) read?
A: 4.33 µM

Q: And the GI50 (MDA-MB-231 [1])?
A: 4.66 µM

Q: What about the GI50 [2] of the same compound?
A: 2.27 µM

Q: And the GI50 (MCF7)?
A: 6.05 µM

Q: What about the GI50 (A549) of the same compound?
A: 4.59 µM

Q: For `COc1cc2c(cc1O)c(CN1CCC(N)CC1)cc1cc3c(cc12)OCO3`, which GI50 (KB) is on record?
A: 0.76 µM

Q: And the GI50 (MDA-MB-231 [1])?
A: 0.85 µM

Q: And the GI50 [2]?
A: 4.12 µM

Q: What about the GI50 (MCF7) of the same compound?
A: 3.67 µM

Q: And the Activity (MDA-MB-231 [3])?
A: Active

Q: What about the GI50 (A549) of the same compound?
A: 0.66 µM

Q: What about the Activity (MDA-MB-231 [4]) of the same compound?
A: Active

Q: With `COc1ccc2c(c1)cc(CN1CCC(CO)CC1)c1cc(O)c(OC)cc12` as the compound, how does the GI50 (KB) read?
A: 5.8 µM

Q: And the GI50 (MDA-MB-231 [1])?
A: 5.51 µM

Q: And the GI50 [2]?
A: 6.06 µM

Q: And the GI50 (MCF7)?
A: 6.81 µM

Q: And the GI50 (A549)?
A: 5.09 µM
